For the experiment, the target named is Human immunodeficiency virus type 1 integrase (Human immunodeficiency virus 1, UniProt Q7ZJM1). The experiment is described as follows: Inhibition of HIV1 integrase strand transfer activity.

Each structure is given as a SMILES string.

Human immunodeficiency virus type 1 integrase, sequence (Q7ZJM1 whole entry): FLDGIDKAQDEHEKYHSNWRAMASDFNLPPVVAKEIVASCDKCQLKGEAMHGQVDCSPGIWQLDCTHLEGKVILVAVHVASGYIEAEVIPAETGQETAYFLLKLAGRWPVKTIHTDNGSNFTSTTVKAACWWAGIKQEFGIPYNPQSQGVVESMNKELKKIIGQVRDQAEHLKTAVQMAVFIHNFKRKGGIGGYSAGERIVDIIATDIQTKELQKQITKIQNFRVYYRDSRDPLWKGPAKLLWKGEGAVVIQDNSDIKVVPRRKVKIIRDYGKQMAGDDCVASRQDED

As a reminder, the IC50 is the concentration that inhibits the measured activity by half. Higher therefore signals weaker potency. As for `CCCCCC[C@H]1OC(=O)C2=C1[C@@H](O)[C@@H]1O[C@@H]1[C@@H]2O` [INTEGRASONE], the IC50 stood at 41 µM.

The values above are taken from ChEMBL document CHEMBL1151211, “Isolation, structure, absolute stereochemistry, and HIV-1 integrase inhibitory activity of integrasone, a novel fungal polyketide” (J Nat Prod, 2004).
